{"source": "patent US8623416B2", "about": "(priority 2009, dated 2014)", "key": {"[1]": {"system": "Yellow Fever", "set-up": "species or system Syrian hamsters", "settings": "hamster, in vivo"}, "[2]": {"type": "physicochemical", "settings": "0.1 ml squalamine lactate 10 mg/ml in water + 1 volume 0.1M solution of the anion, turbid = insoluble salt form"}, "[3]": {"system": "Yellow Fever", "set-up": "species or system Syrian hamsters", "settings": "hamster, in vivo", "remark": "listed apart in the source"}, "[4]": {"system": "murine cytomegalovirus (MCMV)", "type": "in vivo, Balb/c mice", "settings": "for viral titers in lungs and salivary glands vs other groups / viral titers in spleen and liver vs control: day 7"}, "[5]": {"system": "Eastern Equine Encephalitis Virus", "set-up": "species or system hamsters (Syrian golden)", "settings": "hamster, in vivo"}, "[6]": {"system": "Eastern Equine Encephalitis Virus", "set-up": "species or system mice", "settings": "mouse, in vivo"}, "[7]": {"system": "human Hepatitis B virus", "test": "Hepatitis B virus replication in primary human hepatocytes, PCR (Example 19)", "type": "cell-based", "procedure": "The purpose of this experiment was to determine the antiviral activity of squalamine against human Hepatitis B virus. The experiment was conducted in vitro, using primary human hepatocytes.\nExperimental design: Primary human hepatocytes were established in a 96 well microtiter plate. Squalamine was then added at concentrations of 2, 6 or 20 μg/ml followed by an inoculum of Hep B virus, and then in culture for 16 hours, after which fresh medium was introduced, and the cells maintained in culture for 14 days. In a second experiment, squalamine at 6 or 20 μg/ml was added to the cells at 24 hours post inoculation for a 16 hour exposure, followed by removal of medium, replacement with fresh medium, and continued culture for 14 days. Viral growth was measured by PCR using viral specific primers and normalized to the total RNA extracted from each corresponding well."}, "[8]": {"settings": "for Toxicity: hamster, in vivo, sc"}, "[9]": {"system": "Dengue virus"}, "[10]": {"system": "human immunodeficiency virus (HIV)"}, "[11]": {"settings": "in vivo; cited from earlier work"}, "[12]": {"settings": "in vivo; cited from earlier work", "remark": "listed apart in the source"}, "[13]": {"system": "human Hepatitis Delta virus", "test": "Hepatitis Delta virus replication in primary human hepatocytes, PCR (Example 20)"}, "[14]": {"settings": "10 mg of squalamine as a phosphate suspension"}, "[15]": {"settings": "squalamine phosphate 10 mg/kg/day s.c."}, "[16]": {"settings": "mouse, in vivo, ip, 10 mg/kg/day"}, "[17]": {"settings": "20 μg/ml, added during initial stages of infection"}}, "note": "Entries after “also recorded” stand apart in the source; their conditions may differ. Like-named read-outs stand apart in the source and are kept apart here."}
{"compound": "NC(=O)c1ncn([C@@H]2O[C@H](CO)[C@@H](O)[C@H]2O)n1", "note": "[ribavirin, reference compound]", "values": [{"measurement": "survival vs placebo", "setting": "[1]", "result": "fared no better than the placebo-treated cohort"}]}
{"compound": "O=P([O-])([O-])OP(=O)([O-])OP(=O)([O-])[O-].[Na+].[Na+].[Na+].[Na+].[Na+]", "note": "[Sodium triphosphate]", "values": [{"measurement": "Turbidity", "setting": "[2]; triphosphate", "result": "Yes and yes"}]}
{"compound": "3 beta-N-1-(N-[3-(4-aminobutyl)]-1,3-diaminopropane)-7 alpha,24 zeta-dihydroxy-5 alpha-cholestane 24-sulfate [squalamine]", "values": [{"measurement": "survival", "setting": "[1]", "result": 70, "unit": "%"}, {"measurement": "animals cured", "setting": "[3]", "result": 40, "unit": "%"}, {"measurement": "outcome of treatment of established infection", "setting": "[3]", "result": "cure a lethal infection"}, {"measurement": "survival through day 21", "setting": "[3]", "result": 60, "unit": "%"}, {"measurement": "viral titers in lung compared with control", "setting": "[4]; 10 mg/kg/day i.p.", "result": "trend toward reduction"}, {"measurement": "viral titers in lungs and salivary glands vs other groups", "setting": "[4]; 10 mg/kg/day i.p.", "result": "no significant differences"}, {"measurement": "viral titers in spleen and liver vs control", "setting": "[4]; 10 mg/kg/day i.p.", "result": "significantly lower than in the control cohort"}, {"measurement": "viral titers in lungs and salivary glands vs other groups", "setting": "[4]; [15]", "result": "no significant differences"}, {"measurement": "viral titers in spleen and liver vs control", "setting": "[4]; [15]", "result": "significantly lower than in the control cohort"}, {"measurement": "virus in the liver and spleen", "setting": "[4]; mouse, in vivo", "result": "significantly reduced; also recorded: undetectable levels"}, {"measurement": "effect on viral growth in the salivary gland", "setting": "[4]; [16]", "result": "little effect"}, {"measurement": "reduction in viral growth in liver, spleen, and lung", "setting": "[4]; [16]", "result": "greater than 10 fold"}, {"measurement": "virus in the liver and spleen", "setting": "[4]; [16]", "result": "undetectable levels"}, {"measurement": "effect on survival", "setting": "[5]", "result": "extended survival; also recorded: increase survival"}, {"measurement": "effect on viremia", "setting": "[5]", "result": "significantly reduce viremia"}, {"measurement": "hamsters still alive at the end of treatment", "setting": "[5]", "result": "6/10"}, {"measurement": "plasma concentrations of virus lower than vehicle", "setting": "[5]", "result": "about 100 fold"}, {"measurement": "efficacy in mice", "setting": "[6]", "result": "ineffective"}, {"measurement": "inhibition of viral production", "setting": "[7]; 2 μg/ml, added only at the outset of infection", "result": 14, "unit": "%"}, {"measurement": "inhibition of viral production", "setting": "[7]; 6 μg/ml, added at 24 hours", "result": 30, "unit": "%"}, {"measurement": "inhibition of viral production", "setting": "[7]; 6 μg/ml, added at the onset of infection", "result": 54, "unit": "%"}, {"measurement": "inhibition of viral production", "setting": "[7]; 20 μg/ml, added at 24 hours", "result": 64, "unit": "%"}, {"measurement": "inhibition of viral production", "setting": "[7]; [17]", "result": 83, "unit": "%"}, {"measurement": "Toxicity", "setting": "[8]; 15 mg/kg/day", "result": "Mild/moderate by day 1"}, {"measurement": "Toxicity", "setting": "[8]; 30 mg/kg/day", "result": "moderate"}, {"measurement": "Toxicity", "setting": "[8]; 60 mg/kg/day", "result": "Severe, open wounds"}, {"measurement": "cell viability", "setting": "[9]", "result": "not diminished"}, {"measurement": "inhibition of viral infection", "setting": "[9]", "result": 100, "unit": "%"}, {"measurement": "Toxicity", "setting": "[10]", "result": "no evidence of toxicity"}, {"measurement": "inhibition of HIV infection", "setting": "[10]", "result": "about 50%; also recorded: about 20%"}, {"measurement": "tolerability", "setting": "[11]", "result": "well tolerated"}, {"measurement": "tolerability", "setting": "[12]", "result": "well tolerated"}, {"measurement": "inhibition of viral production", "setting": "[13]; [17]", "result": 90, "unit": "%"}, {"measurement": "cytotoxicity in vitro", "setting": "[13]; 60 μg/ml, primary human hepatocytes", "result": "cytotoxic"}]}
{"compound": "CC(=O)C(=O)[O-].[Na+]", "note": "[Sodium pyruvate]", "values": [{"measurement": "Turbidity", "setting": "[2]", "result": "No and no"}]}
{"compound": "O=C[C@H](O)[C@@H](O)[C@H](O)[C@H](O)COP(=O)(O)O", "note": "[Glucose 6-phosphate]", "values": [{"measurement": "Turbidity", "setting": "[2]", "result": "No and no"}]}
{"compound": "squalamine phosphate", "values": [{"measurement": "survival", "setting": "[1]", "result": 70, "unit": "%"}, {"measurement": "water added until fully dissolved", "setting": "[14]", "result": "about 250 ml"}, {"measurement": "Toxicity", "setting": "[8]; 15 mg/kg/day", "result": "none"}, {"measurement": "Toxicity", "setting": "[8]; 30 mg/kg/day", "result": "none"}, {"measurement": "Toxicity", "setting": "[8]; 60 mg/kg/day", "result": "none"}, {"measurement": "lesions at the sites of administration", "setting": "[8]; s.c. dosing at 10 mg/ml, recorded 7 days post injection", "result": "no lesions"}, {"measurement": "persistence of local signs (lactate: signs and symptoms; phosphate: slight swelling)", "setting": "0.1 ml of 10 mg/ml s.c.", "result": "about 1 week"}, {"measurement": "local signs at injection site", "setting": "human, in vivo, sc", "result": "free of visible signs of irritation, save for a slight swelling"}, {"measurement": "pain on injection", "setting": "human, in vivo, sc", "result": "no pain other than that produced by the needle prick"}]}
